Assay results published in PubChem BioAssay AID248 (DTP/NCI, 2004).
Several values for one entry are separate records, joined by “and”; a condition that tells them apart may be missing. Equal values may be shown once. Toxic doses and inconclusive results are not listed. Rule as the data show it: active = T/C of 150% or more; inactive = T/C below 125%.

System: L1210 leukemia ip in BDF1 mice, survival T/C
Assay: NCI In Vivo Anticancer Drug Screen. Data for tumor model L1210 Leukemia (intraperitoneal) in B6D2F1 (BDF1) mice
Conditions: endpoint: mean survival time, higher = longer survival
Outline: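 Value reflects the ratio of survival in compound-treated mice to survival in vehicle-treated controls, with both groups carrying the same transplanted tumor.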

[1] = dose: 100.0 mg/kg/injection, schedule: Q01DX001 (ip), vehicle: carboxymethylcellulose (CMC)
[2] = dose: 200.0 mg/kg/injection, schedule: Q01DX001 (ip), vehicle: carboxymethylcellulose (CMC)
[3] = dose: 400.0 mg/kg/injection, schedule: Q01DX001 (ip), vehicle: carboxymethylcellulose (CMC)

Measured: T/C

O=C(O)c1ccc(SSc2ccc(C(=O)O)cc2)cc1
inactive: dose: 25.0 mg/kg/injection, schedule: Q01DX009 (ip), vehicle: carboxymethylcellulose (CMC) 93 % of control and 100 % of control | dose: 25.0 mg/kg/injection, schedule: Q04DX002 (ip), vehicle: carboxymethylcellulose (CMC) 96 % of control and 103 % of control | dose: 50.0 mg/kg/injection, schedule: Q01DX009 (ip), vehicle: carboxymethylcellulose (CMC) 97 % of control and 98 % of control | dose: 50.0 mg/kg/injection, schedule: Q04DX002 (ip), vehicle: carboxymethylcellulose (CMC) 94 % of control and 90 % of control | dose: 50.0 mg/kg/injection, schedule: Q04DX003 (ip), vehicle: carboxymethylcellulose (CMC) 98 % of control and 89 % of control | [1] 93 % of control and 88 % of control | dose: 100.0 mg/kg/injection, schedule: Q01DX009 (ip), vehicle: carboxymethylcellulose (CMC) 92 % of control and 94 % of control and 100 % of control | dose: 100.0 mg/kg/injection, schedule: Q04DX003 (ip), vehicle: carboxymethylcellulose (CMC) 110 % of control and 89 % of control | [2] 97 % of control and 100 % of control | dose: 200.0 mg/kg/injection, schedule: Q04DX002 (ip), vehicle: carboxymethylcellulose (CMC) 97 % of control | dose: 200.0 mg/kg/injection, schedule: Q04DX003 (ip), vehicle: carboxymethylcellulose (CMC) 88 % of control and 91 % of control | [3] 110 % of control

NCC(O)C(F)(F)C(F)(F)C(F)(F)F (centres undefined)
inactive: [1] 103 % of control | [2] 103 % of control | [3] 95 % of control

O=C(O)C(Cl)C(=O)O
inactive: dose: 4.68 mg/kg/injection, schedule: Q01DX009 (ip), vehicle: saline 102 % of control | dose: 9.37 mg/kg/injection, schedule: Q01DX009 (ip), vehicle: saline 102 % of control | dose: 18.75 mg/kg/injection, schedule: Q01DX009 (ip), vehicle: saline 94 % of control | dose: 18.75 mg/kg/injection, schedule: Q04DX003 (ip), vehicle: saline 105 % of control | dose: 37.5 mg/kg/injection, schedule: Q04DX003 (ip), vehicle: saline 97 % of control | dose: 75.0 mg/kg/injection, schedule: Q01DX001 (ip), vehicle: saline 107 % of control

CC(=O)c1ccc2c(c1)sc1cc(C(C)=O)ccc12
inactive: dose: 50.0 mg/kg/injection, schedule: Q01DX001 (ip), vehicle: carboxymethylcellulose (CMC) 96 % of control | [1] 100 % of control | [2] 90 % of control | [3] 90 % of control

O=C(O)CCCCCCCCCCN1C(=O)c2cccc([N+](=O)[O-])c2C1=O
inactive: dose: 87.5 mg/kg/injection, schedule: Q04DX003 (ip), vehicle: carboxymethylcellulose (CMC) 101 % of control | dose: 175.0 mg/kg/injection, schedule: Q04DX003 (ip), vehicle: carboxymethylcellulose (CMC) 97 % of control | dose: 350.0 mg/kg/injection, schedule: Q04DX003 (ip), vehicle: carboxymethylcellulose (CMC) 87 % of control

O=C1OCC/C1=C/CCCCCC/C=C1\CCOC1=O
inactive: dose: 50.0 mg/kg/injection, schedule: Q01DX009 (ip), vehicle: DMSO 92 % of control | dose: 100.0 mg/kg/injection, schedule: Q01DX009 (ip), vehicle: DMSO 90 % of control | dose: 100.0 mg/kg/injection, schedule: Q04DX003 (ip), vehicle: DMSO 102 % of control | dose: 200.0 mg/kg/injection, schedule: Q01DX009 (ip), vehicle: DMSO 91 % of control | dose: 200.0 mg/kg/injection, schedule: Q04DX003 (ip), vehicle: DMSO 101 % of control | dose: 400.0 mg/kg/injection, schedule: Q04DX003 (ip), vehicle: DMSO 94 % of control

CC(=O)NC(CC(=O)O)C(=O)O (centres undefined)
inactive: dose: 50.0 mg/kg/injection, schedule: Q01DX009 (ip), vehicle: Klucel (hydroxypropylcellulose) (HPC) 97 % of control | dose: 50.0 mg/kg/injection, schedule: Q04DX002 (ip), vehicle: saline 107 % of control | dose: 100.0 mg/kg/injection, schedule: Q01DX009 (ip), vehicle: Klucel (hydroxypropylcellulose) (HPC) 105 % of control | dose: 100.0 mg/kg/injection, schedule: Q01DX009 (ip), vehicle: saline 107 % of control | dose: 100.0 mg/kg/injection, schedule: Q04DX002 (ip), vehicle: saline 107 % of control | dose: 100.0 mg/kg/injection, schedule: Q04DX003 (ip), vehicle: Klucel (hydroxypropylcellulose) (HPC) 90 % of control | dose: 200.0 mg/kg/injection, schedule: Q01DX009 (ip), vehicle: Klucel (hydroxypropylcellulose) (HPC) 101 % of control | dose: 200.0 mg/kg/injection, schedule: Q01DX009 (ip), vehicle: saline 113 % of control | dose: 200.0 mg/kg/injection, schedule: Q04DX002 (ip), vehicle: saline 98 % of control | dose: 200.0 mg/kg/injection, schedule: Q04DX003 (ip), vehicle: Klucel (hydroxypropylcellulose) (HPC) 87 % of control | dose: 400.0 mg/kg/injection, schedule: Q01DX009 (ip), vehicle: saline 102 % of control | dose: 400.0 mg/kg/injection, schedule: Q04DX003 (ip), vehicle: Klucel (hydroxypropylcellulose) (HPC) 97 % of control

C[CH2][Sn]([CH2]C)([O]S(=O)(=O)CC12CCC(CC1=O)C2(C)C)[O]S(=O)(=O)CC12CCC(CC1=O)C2(C)C
inactive: dose: 3.12 mg/kg/injection, schedule: Q01DX009 (ip), vehicle: saline 106 % of control | dose: 5.5 mg/kg/injection, schedule: Q01DX009 (ip), vehicle: saline 109 % of control | dose: 6.25 mg/kg/injection, schedule: Q01DX009 (ip), vehicle: saline 106 % of control and 107 % of control | dose: 6.25 mg/kg/injection, schedule: Q04DX003 (ip), vehicle: saline 112 % of control | dose: 8.2 mg/kg/injection, schedule: Q01DX009 (ip), vehicle: saline 118 % of control | dose: 11.0 mg/kg/injection, schedule: Q04DX003 (ip), vehicle: saline 113 % of control | dose: 12.5 mg/kg/injection, schedule: Q01DX009 (ip), vehicle: saline 106 % of control and 120 % of control | dose: 12.5 mg/kg/injection, schedule: Q04DX002 (ip), vehicle: saline 104 % of control | dose: 12.5 mg/kg/injection, schedule: Q04DX003 (ip), vehicle: saline 114 % of control | dose: 16.0 mg/kg/injection, schedule: Q04DX003 (ip), vehicle: saline 104 % of control | dose: 18.0 mg/kg/injection, schedule: Q01DX009 (ip), vehicle: saline 117 % of control | dose: 22.0 mg/kg/injection, schedule: Q04DX002 (ip), vehicle: saline 107 % of control | dose: 25.0 mg/kg/injection, schedule: Q01DX001 (ip), vehicle: saline 109 % of control | dose: 25.0 mg/kg/injection, schedule: Q01DX009 (ip), vehicle: saline 112 % of control and 115 % of control and 120 % of control | dose: 25.0 mg/kg/injection, schedule: Q04DX002 (ip), vehicle: saline 106 % of control | dose: 25.0 mg/kg/injection, schedule: Q04DX003 (ip), vehicle: saline 112 % of control and 117 % of control | dose: 35.0 mg/kg/injection, schedule: Q04DX002 (ip), vehicle: saline 116 % of control | dose: 35.0 mg/kg/injection, schedule: Q04DX003 (ip), vehicle: saline 113 % of control | dose: 45.0 mg/kg/injection, schedule: Q01DX001 (ip), vehicle: saline 120 % of control | dose: 50.0 mg/kg/injection, schedule: Q01DX001 (ip), vehicle: saline 114 % of control | dose: 50.0 mg/kg/injection, schedule: Q04DX003 (ip), vehicle: saline 102 % of control | dose: 55.0 mg/kg/injection, schedule: Q04DX003 (ip), vehicle: saline 112 % of control

CNCC1C(c2ccc(OC)cc2)C1c1ccc(OC)cc1 (centres undefined)
inactive: dose: 12.5 mg/kg/injection, schedule: Q04DX002 (ip), vehicle: Klucel (hydroxypropylcellulose) (HPC) 102 % of control | dose: 25.0 mg/kg/injection, schedule: Q04DX002 (ip), vehicle: Klucel (hydroxypropylcellulose) (HPC) 108 % of control | dose: 50.0 mg/kg/injection, schedule: Q04DX002 (ip), vehicle: Klucel (hydroxypropylcellulose) (HPC) 94 % of control

COc1ccc(SC(=O)N(C)C)cc1
inactive: dose: 100.0 mg/kg/injection, schedule: Q01DX001 (ip), vehicle: saline with Tween-80 98 % of control | dose: 200.0 mg/kg/injection, schedule: Q01DX001 (ip), vehicle: saline with Tween-80 94 % of control | dose: 400.0 mg/kg/injection, schedule: Q01DX001 (ip), vehicle: saline with Tween-80 98 % of control
